Laboratory results: ChEMBL document CHEMBL1201862, “PubChem BioAssay data set” (2004)
Calls of active or inactive are those of the source.

How the values were obtained:
Prothrombin = Prothrombin (Homo sapiens, UniProt P00734); experiment: Thrombin 1536 HTS Dose Response Confirmation. [Related pubchem assays: 1046 (Thrombin 1536 HTS; hits were confirmed in this assay)]; assay type: functional
[1] = A549 cell cytotoxicity, dose response, cytotoxicity control, plate reader, cherry-pick, antagonist series (AID 743412); assay type: functional, cell-based
[2] = blockers of bursicon-stimulated LGR2 cAMP reporter – cell-based, HEK293, CRE-luciferase reporter, cherry pick, set 2, dose response (AID 743343); assay type: functional;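 further: transfected cells were stimulated with diluted bursicon conditioned medium after compound addition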
[3] = blockade of melanocortin 4 receptor signaling – cell-based, plate reader, cherry pick, counter-screen for LGR2 antagonist project, dose response (AID 743444); assay type: functional;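 further: transfected HEK 293 cells stimulated with alpha-MSH peptide; potency of inhibitors of the alpha-MSH evoked signal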
[4] = viability loss in HEK293 cells – cell-based, plate reader, cherry-picked samples, cytotoxicity control, dose response (AID 743446); assay type: functional
[5] = target: Heat shock protein HSP 90-alpha (Homo sapiens, UniProt P07900); experiment: Luminescence-based dose response biochemical high throughput screening assay for inhibitors of the Heat Shock Protein 90 (HSP90). [Related pubchem assays: 1831 (Summary AID.), 1846 (Confirmation screen.), 1789 (Primary screen.)]
[6] = tested on: Streptococcus sp. 'group A'; experiment: Streptococcus pyogenes SK(-)GAS viability under kanamycin – luminescence, BacTiterGlo, confirmation, counter-screen for streptokinase expression inhibitor project, dose response (AID 1900); assay type: functional, organism-based
Streptokinase A = target: T1, Streptokinase A (Streptococcus pyogenes serotype M1, UniProt P10520); experiment: viability-normalized secreted streptokinase activity reduction – plasminogen activation absorbance, OD405, dose response (AID 1914); assay type: functional, Streptococcus pyogenes M1 GAS;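 further: secreted streptokinase activity via plasminogen activation per viability signal from cell pellet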
T1 sequence (P10520 whole entry): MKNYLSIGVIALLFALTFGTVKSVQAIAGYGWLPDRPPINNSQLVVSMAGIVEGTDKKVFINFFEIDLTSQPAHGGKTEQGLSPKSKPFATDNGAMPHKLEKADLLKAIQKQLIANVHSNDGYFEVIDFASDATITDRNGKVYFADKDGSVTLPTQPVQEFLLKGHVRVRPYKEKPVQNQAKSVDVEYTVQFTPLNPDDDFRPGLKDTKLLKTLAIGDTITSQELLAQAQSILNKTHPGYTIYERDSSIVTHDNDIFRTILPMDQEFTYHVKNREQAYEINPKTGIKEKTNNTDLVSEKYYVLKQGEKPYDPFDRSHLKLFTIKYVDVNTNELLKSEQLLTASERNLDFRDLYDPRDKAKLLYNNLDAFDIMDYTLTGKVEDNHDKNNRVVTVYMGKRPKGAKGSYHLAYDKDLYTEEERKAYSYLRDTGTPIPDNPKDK

[7] = Trypanosoma cruzi growth suppression in host cells – NIH3T3 host cells, beta-gal luminescence, confirmation (AID 2044); assay type: functional, cell-based;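 further: intracellular parasites grown in NIH/3T3 mouse fibroblasts as host cells; luminescent beta-galactosidase reporter signal from transgenic T. cruzi replicating inside host cells; inhibitors lower the luminescence signal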
[8] = microbe, parasite or virus in culture; assay type: functional; conditions: Mycobacterium tuberculosis
[9] = NIH3T3 cell viability loss – ATP luminescence, mouse fibroblasts, counter-screen, dose response (AID 2010); assay type: functional, cell-based;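 further: cells exposed to compound for about 90 hours before reading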
Streptococcus = experiment: GAS UMAA2166 growth inhibition – luminescence, BacTiterGlo, counter-screen for streptokinase expression inhibitor project, dose response (AID 1915); assay type: functional, organism-based;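 further: potency for reduction of bacterial viability or growth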
[10] = target: Disintegrin and metalloproteinase domain-containing protein 17 (Homo sapiens, UniProt P78536); experiment: inhibition of ADAM17 substrate cleavage – biochemical, quenched FRET substrate, counter-screen for ADAM10 exosite inhibitor project, dose response (AID 743253)
[11] = target: E3 ubiquitin-protein ligase Mdm2 (Homo sapiens, UniProt Q00987); experiment: MDM2-luc reporter signal enhancers, multi-concentration potency testing, MDM2 ubiquitin-protein ligase inhibitor program, whole-cell format, luminescence detection, 384-well microplate (AID 1394); assay type: functional;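 further: MDM2 E3 inhibitors raise luminescence so EC50 is for signal enhancement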
[12] = target: T2, Polyadenylate-binding protein 1 (Homo sapiens, UniProt P11940); experiment: MLLE binding blockers, Cy5 peptide tracer – biochemical, fluorescence polarization, Cy5-PAM2 peptide, secondary, miRNA deadenylation inhibitor project, dose response (AID 602260); assay type: functional; conditions: read-out: IC50_Mean
[13] = target: T2, Polyadenylate-binding protein 1; experiment: MLLE domain peptide-binding blockers, IC50 – biochemical, fluorescence polarization, FITC-PAM2 peptide, dose response (AID 602259); assay type: functional; conditions: read-out: IC50_Mean
[14] = NIH-3T3 fibroblast cytotoxicity, dose response, cytotoxicity control, cell-based, fluorescence, Alamar Blue, secondary assay (AID 2327); assay type: functional;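 further: NIH-3T3 mouse fibroblasts cultured with fluconazole at 8 µg/mL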
[15] = fluconazole-exposed Candida albicans growth modulators – fluorescence, retest, confirmation (AID 2467); assay type: functional, cell-based
[16] = target: T3, Mannose-6-phosphate isomerase (Homo sapiens, UniProt P34949); experiment: MPI inhibition at elevated mannose 6-phosphate – biochemical, fluorescence intensity, high mannose 6-phosphate, primary screen (AID 1220)
T3 sequence (P34949 whole entry): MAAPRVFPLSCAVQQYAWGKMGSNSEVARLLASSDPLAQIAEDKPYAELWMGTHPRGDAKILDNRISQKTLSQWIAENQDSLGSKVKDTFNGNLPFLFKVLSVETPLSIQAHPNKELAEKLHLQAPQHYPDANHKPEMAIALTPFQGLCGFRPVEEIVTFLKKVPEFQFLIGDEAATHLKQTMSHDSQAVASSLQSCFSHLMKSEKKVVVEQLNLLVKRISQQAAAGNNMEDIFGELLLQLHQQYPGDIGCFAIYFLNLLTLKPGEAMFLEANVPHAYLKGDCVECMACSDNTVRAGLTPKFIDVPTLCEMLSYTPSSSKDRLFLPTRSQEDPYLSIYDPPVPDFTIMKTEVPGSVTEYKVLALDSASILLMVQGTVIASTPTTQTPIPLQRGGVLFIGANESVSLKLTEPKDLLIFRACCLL

[17] = target: T4, Replicative DNA helicase DnaB (Mycobacterium tuberculosis, UniProt P9WMR3); experiment: DnaB intein splicing inhibitors, dose response, biochemical, cell-free fluorescence (AID 449749); assay type: functional
T4 sequence (P9WMR3 whole entry): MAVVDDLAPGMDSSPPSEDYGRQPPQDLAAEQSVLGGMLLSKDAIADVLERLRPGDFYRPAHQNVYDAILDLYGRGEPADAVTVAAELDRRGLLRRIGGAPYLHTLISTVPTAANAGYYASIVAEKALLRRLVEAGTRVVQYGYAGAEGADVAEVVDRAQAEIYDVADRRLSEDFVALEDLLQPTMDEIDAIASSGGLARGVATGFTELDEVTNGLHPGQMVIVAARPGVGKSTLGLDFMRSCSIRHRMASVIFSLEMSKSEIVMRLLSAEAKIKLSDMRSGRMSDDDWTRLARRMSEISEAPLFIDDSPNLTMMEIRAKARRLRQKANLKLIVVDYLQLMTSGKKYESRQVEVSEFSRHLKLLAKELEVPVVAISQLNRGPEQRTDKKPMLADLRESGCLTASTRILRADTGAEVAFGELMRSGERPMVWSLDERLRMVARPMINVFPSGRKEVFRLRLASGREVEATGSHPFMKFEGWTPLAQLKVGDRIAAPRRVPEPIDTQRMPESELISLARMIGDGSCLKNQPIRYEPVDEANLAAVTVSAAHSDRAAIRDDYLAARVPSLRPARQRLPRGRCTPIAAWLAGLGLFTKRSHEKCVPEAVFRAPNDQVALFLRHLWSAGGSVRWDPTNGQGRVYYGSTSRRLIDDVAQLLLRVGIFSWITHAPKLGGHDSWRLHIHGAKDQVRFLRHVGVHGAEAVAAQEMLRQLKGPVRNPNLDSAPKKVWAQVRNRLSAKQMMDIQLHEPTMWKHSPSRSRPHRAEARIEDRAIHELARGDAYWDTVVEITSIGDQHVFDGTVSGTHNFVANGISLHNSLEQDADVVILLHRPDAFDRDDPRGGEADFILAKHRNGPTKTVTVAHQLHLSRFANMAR

Protein RecA = target: T5, Protein RecA (Mycobacterium tuberculosis, UniProt P9WHJ3); experiment: Fluorescence Cell-Free Homogeneous Dose Retest to Identify Inhibitors of RecA-Intein Splicing Activity. [Related pubchem assays (depositor defined):AID2097, AID2223, AID489010, AID492950]; assay type: functional
T5 sequence (P9WHJ3 whole entry): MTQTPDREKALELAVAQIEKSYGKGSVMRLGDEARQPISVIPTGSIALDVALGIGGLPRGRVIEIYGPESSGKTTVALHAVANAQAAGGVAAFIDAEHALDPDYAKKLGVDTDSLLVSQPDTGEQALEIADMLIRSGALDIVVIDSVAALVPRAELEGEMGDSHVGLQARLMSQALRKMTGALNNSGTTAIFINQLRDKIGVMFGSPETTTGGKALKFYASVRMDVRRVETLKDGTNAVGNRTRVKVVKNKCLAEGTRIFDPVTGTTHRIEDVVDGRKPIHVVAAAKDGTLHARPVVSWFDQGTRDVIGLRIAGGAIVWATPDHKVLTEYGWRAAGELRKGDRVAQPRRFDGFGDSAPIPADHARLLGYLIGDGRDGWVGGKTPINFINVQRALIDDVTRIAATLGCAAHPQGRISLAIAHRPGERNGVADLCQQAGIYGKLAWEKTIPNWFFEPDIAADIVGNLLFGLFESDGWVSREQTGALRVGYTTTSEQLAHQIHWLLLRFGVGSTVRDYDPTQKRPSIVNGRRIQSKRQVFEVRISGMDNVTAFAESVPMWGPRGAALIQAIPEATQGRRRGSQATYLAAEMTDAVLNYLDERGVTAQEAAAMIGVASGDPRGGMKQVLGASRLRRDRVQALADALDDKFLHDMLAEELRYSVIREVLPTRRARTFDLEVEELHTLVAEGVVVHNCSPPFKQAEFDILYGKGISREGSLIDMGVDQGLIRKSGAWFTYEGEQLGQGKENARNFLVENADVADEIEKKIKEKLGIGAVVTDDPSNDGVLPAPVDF

Paired box protein Pax-8 = Paired box protein Pax-8 (Homo sapiens, UniProt Q06710); experiment: PAX8 transcriptional activity inhibition in RMG-I – RMG-I cells, luciferase, cherry-pick, dose response (AID 687027); assay type: functional, cell-based;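 further: luciferase reporter driven by Pax8 target thyroperoxidase promoter measured by SteadyGlo luminescence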
[18] = general cell-killing toxicity readout – plate reader, dry powder samples, cytotoxicity control for PAX8 inhibitor project, dose response (AID 743021); assay type: functional, cell-based
[19] = Luminescence Cell-Based Dose Response HTS to Identify Activators of Luciferase Translation or Activity in H4 […] Cells. [Related pubchem assays: 1829 (Project Summary), 1814 (Primary HTS)]; assay type: functional
H4 = experiment: Luminescence Cell-Based Dose Response HTS to Identify Activators of 5'UTR Stem-Loop Driven Prion Protein mRNA Translation in H4 Neuroglioblastoma Cells. [Related pubchem assays: 1829 (Project Summary), 1814 (Primary HTS)]; assay type: functional; conditions: Homo sapiens
[20] = P. falciparum Dd2 growth inhibitors, dose response, SYBR Green, cherry-picked samples (AID 1159567); assay type: functional, cell-based
[21] = toxicity to human hepatoma HepG2 cells – cell-based, cherry-picked samples, cytotoxicity control, dose response (AID 1159577); assay type: functional
[22] = growth inhibition of yeast DHODH-expressing 3D7 parasites – SYBR Green, dry powder samples, dose response (AID 1159570); assay type: functional, cell-based;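 further: parasite growth measured after 72 hours of compound exposure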
[23] = toxicity to human HepG2 hepatoma cells – cell-based, plate reader, dry powder samples, cytotoxicity control, dose response (AID 1159569); assay type: functional;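 further: inhibitor potency with signal falling toward the positive control level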
[24] = Dd2 malaria parasite growth inhibition potency – SYBR Green, dry powder samples, dose response (AID 1159566); assay type: functional, cell-based;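 further: potency for growth inhibition with lower SYBR green DNA signal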
[25] = growth inhibition of PfATP4-mutant resistant parasites – NITD609-resistant line, SYBR Green, dry powder, dose response (AID 1159571); assay type: functional, cell-based;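 further: parasites synchronized at ring stage by sorbitol before testing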

T2 sequence (P11940 whole entry, the tested form may be a part): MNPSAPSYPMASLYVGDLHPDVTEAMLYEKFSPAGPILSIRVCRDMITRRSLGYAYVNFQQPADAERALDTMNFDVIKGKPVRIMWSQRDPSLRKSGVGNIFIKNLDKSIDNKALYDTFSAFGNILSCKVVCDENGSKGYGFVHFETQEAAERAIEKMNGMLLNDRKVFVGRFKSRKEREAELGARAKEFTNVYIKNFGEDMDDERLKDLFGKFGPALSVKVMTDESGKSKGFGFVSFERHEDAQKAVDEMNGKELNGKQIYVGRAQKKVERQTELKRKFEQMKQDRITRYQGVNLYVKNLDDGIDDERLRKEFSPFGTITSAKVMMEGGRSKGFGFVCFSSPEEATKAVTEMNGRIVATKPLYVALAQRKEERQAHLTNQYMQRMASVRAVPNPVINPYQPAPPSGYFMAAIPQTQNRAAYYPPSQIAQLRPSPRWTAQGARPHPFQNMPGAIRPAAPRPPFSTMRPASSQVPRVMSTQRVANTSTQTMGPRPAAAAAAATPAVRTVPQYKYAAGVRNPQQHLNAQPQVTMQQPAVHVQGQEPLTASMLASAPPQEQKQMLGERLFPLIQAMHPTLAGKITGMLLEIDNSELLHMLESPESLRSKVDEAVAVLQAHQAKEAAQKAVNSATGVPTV
Chain of E3 ubiquitin-protein ligase Mdm2 (Q00987 whole entry): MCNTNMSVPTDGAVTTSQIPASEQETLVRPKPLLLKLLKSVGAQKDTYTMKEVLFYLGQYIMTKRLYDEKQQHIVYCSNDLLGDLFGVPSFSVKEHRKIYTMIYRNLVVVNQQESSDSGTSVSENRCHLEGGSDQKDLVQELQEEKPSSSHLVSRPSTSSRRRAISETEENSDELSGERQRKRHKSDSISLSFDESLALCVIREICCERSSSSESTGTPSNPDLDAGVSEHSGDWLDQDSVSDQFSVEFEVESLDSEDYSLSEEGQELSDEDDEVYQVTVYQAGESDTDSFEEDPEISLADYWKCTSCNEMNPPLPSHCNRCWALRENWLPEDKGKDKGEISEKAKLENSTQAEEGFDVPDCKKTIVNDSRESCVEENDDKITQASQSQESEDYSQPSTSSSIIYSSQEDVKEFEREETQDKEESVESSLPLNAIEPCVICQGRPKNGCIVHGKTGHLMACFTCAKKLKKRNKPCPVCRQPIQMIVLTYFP
Chain of Paired box protein Pax-8 (Q06710 whole entry): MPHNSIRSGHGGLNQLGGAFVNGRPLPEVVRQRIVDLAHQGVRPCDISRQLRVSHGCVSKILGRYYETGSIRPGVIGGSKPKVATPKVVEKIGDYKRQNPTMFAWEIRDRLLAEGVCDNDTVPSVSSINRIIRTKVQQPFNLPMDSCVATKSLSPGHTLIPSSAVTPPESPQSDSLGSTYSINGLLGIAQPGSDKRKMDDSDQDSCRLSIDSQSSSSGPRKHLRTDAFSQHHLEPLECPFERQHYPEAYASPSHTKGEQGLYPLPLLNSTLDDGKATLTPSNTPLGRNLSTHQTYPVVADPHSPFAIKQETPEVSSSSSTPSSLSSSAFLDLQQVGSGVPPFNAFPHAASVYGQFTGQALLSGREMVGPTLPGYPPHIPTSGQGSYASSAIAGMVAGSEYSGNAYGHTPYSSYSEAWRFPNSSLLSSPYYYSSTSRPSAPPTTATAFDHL
Chain of Disintegrin and metalloproteinase domain-containing protein 17 (P78536 whole entry, the tested form may be a part): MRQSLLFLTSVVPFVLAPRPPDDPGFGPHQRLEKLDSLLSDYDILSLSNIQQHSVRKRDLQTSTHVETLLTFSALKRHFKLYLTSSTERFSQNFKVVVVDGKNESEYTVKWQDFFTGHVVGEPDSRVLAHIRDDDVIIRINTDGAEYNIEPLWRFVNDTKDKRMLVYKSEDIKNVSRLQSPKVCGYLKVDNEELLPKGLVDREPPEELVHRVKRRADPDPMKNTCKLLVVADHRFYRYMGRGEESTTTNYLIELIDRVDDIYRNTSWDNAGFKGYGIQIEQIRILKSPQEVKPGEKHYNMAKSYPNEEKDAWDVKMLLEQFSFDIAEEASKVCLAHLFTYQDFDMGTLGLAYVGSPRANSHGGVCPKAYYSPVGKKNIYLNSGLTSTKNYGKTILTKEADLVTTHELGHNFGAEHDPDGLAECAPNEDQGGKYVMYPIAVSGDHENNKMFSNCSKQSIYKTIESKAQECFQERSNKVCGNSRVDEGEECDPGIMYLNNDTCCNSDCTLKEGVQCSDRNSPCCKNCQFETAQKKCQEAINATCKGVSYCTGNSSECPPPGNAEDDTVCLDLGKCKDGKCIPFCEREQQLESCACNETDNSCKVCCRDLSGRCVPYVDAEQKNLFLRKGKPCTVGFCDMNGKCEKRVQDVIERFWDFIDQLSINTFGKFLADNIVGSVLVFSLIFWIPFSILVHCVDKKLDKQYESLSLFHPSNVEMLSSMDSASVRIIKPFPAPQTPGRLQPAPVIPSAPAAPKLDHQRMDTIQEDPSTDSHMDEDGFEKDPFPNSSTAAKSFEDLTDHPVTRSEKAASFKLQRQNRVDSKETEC

CC(=O)c1c(OC(=O)c2ccco2)c2ccccc2n1C
IC50 (Prothrombin): 3.99 µM (active)

O=C(Nc1ccc(Cl)cc1Cl)c1ccc2c(c1)OCCO2
AC50 [1]: 42.4 µM (active)
AC50 [2]: 6.49 µM (active)
AC50 [3]: 12.9 µM (active)
AC50 [4]: > 52 µM (inactive)

O=C(Cc1ccccc1)N1CCN(S(=O)(=O)c2ccc([N+](=O)[O-])cc2)CC1
IC50 [5]: 29.1 µM (not active)

Cc1cc(C)c(CSc2nc(-c3ccc([N+](=O)[O-])cc3)c[nH]2)c(C)c1
EC50 [6]: 3.92 µM (active)
EC50 (Streptokinase A): 10.3 µM (active)
EC50 [7]: 3.48 µM (active)
CC50 [8]: 22.3 µM (active)
EC50 [9]: > 60 µM (inconclusive)
EC50 (Streptococcus): 39.4 µM (active)
IC50 [10]: > 69.5 µM (inactive)

Oc1nc2cc3c(cc2cc1CN(Cc1nnnn1CC1CCCO1)C1CCCC1)OCO3 (stereo not drawn)
EC50 [11]: 47.2 µM (not active)
IC50 [12]: > 66 µM (inactive)
IC50 [13]: > 66 µM (inactive)

CCOC(=O)N1CCN(Cc2ccc(O)c3ncccc23)CC1
EC50 [14]: > 150 µM (inactive)
EC50 [15]: > 38 µM (not active)
IC50 [16]: 10.6 µM (active)

O=C(CCl)N(Cc1ccccc1)c1ccccc1
AC50 [17]: 18.4 µM (active)
EC50 (Protein RecA): 0.813 µM (active)
AC50 (Paired box protein Pax-8): 3.95 µM (active)
AC50 [18]: 9.34 µM (active)

Cc1cccc(N2C(=O)/C(=C/N3CCN(C(=O)c4ccco4)CC3)C(=O)NC2=S)c1
IC50 [16]: > 50 µM (not active)

Cc1cccc(Nc2nnc(SCC3CCCCO3)s2)c1 (stereo not drawn)
EC50 [11]: 11.2 µM (not active)
EC50 [19]: 27.2 µM (active)
EC50 (H4): 21.8 µM (active)

Cc1nnc(SCc2nnc(-c3ccccc3Br)o2)n1-c1ccccc1
IC50 (Prothrombin): > 50 µM (not active)

COc1ccc(N(/N=C2\Sc3ccccc3C2=O)C(C)=O)cc1
IC50 [5]: 1.96 µM (active)

CO[C@@H]1CN(C)C(=O)c2cc(NC(=O)c3nc4ccccc4s3)ccc2OC[C@H](C)N(Cc2cccnc2)C[C@@H]1C
AC50 [20]: 5.35 µM (active)
AC50 [21]: 33.4 µM (active)

COc1ccc(C#Cc2ccc([C@H]3[C@@H](CO)N4CCCCN(C(=O)Nc5ccccc5F)C[C@H]34)cc2)cc1
AC50 [20]: 1.02 µM (active)
AC50 [21]: 7 µM (active)

O=C(C1CCCC1)N1CC[C@@H]2[C@H]1c1cc(-c3cccc(F)c3)ccc1N[C@@H]2CO
AC50 [22]: 1.03 µM (active)
AC50 [23]: 19.9 µM (active)
AC50 [20]: 0.996 µM (active)
AC50 [24]: 0.641 µM (active)
AC50 [25]: 0.577 µM (active)

COc1ccccc1C#Cc1ccc2c(c1)[C@H]1NCC[C@H]1[C@@H](CO)N2
AC50 [22]: 3.54 µM (active)
AC50 [23]: 38.1 µM (active)
AC50 [20]: 2.45 µM (active)
AC50 [24]: 2.02 µM (active)
AC50 [25]: 3.13 µM (active)
